Assay results: ChEMBL document CHEMBL1201862, “PubChem BioAssay data set” (2004)
Calls of active or inactive are those of the source. Rule as the data show it, for most assays here: actives have a measured EC50 and inactives only a lower limit.

How the values were obtained:
[1] = Luminescence Cell-Based Dose Response to Identify Activators of 5'UTR Stem-Loop Driven Prion Protein mRNA Translation in H4-C Neuroglioblastoma Cells. [Related pubchem assays: 1829 (Project Summary), 1814 (Primary HTS)]; type: functional
[2] = Luminescence Cell-Based Dose Response HTS to Identify Activators of Luciferase Translation or Activity in H4 […] Cells. [Related pubchem assays: 1829 (Project Summary), 1814 (Primary HTS)]; type: functional
[3] = system: H4; assay: Luminescence Cell-Based Dose Response HTS to Identify Activators of 5'UTR Stem-Loop Driven Prion Protein mRNA Translation in H4 Neuroglioblastoma Cells. [Related pubchem assays: 1829 (Project Summary), 1814 (Primary HTS)]; type: functional; settings: Homo sapiens
[4] = Luminescence Cell-Based Dose Response to Identify Activators of Luciferase Translation or Activity in H4-C Neuroglioblastoma Cells. [Related pubchem assays: 1829 (Project Summary), 1814 (Primary HTS)]; type: functional
[5] = Luminescence Cell-Based Dose Confirmation to Identify Activators of 5'UTR Stem-Loop Driven Alpha-Synuclein mRNA Translation in H4 Neuroglioblastoma Cells. [Related pubchem assays: 1829 (Project Summary), 1814 (Primary HTS)]; type: functional
[6] = biological target: T1, Corticotropin-releasing factor receptor 2/Corticotropin-releasing factor-binding protein (Homo sapiens, UniProt P24387+Q13324); assay: activators of CRF receptor 2 with binding protein – uHTS hits, confirmation (AID 602473); type: functional; settings: read-out: EC50_Mean
T1 sequence (Q13324 whole entry): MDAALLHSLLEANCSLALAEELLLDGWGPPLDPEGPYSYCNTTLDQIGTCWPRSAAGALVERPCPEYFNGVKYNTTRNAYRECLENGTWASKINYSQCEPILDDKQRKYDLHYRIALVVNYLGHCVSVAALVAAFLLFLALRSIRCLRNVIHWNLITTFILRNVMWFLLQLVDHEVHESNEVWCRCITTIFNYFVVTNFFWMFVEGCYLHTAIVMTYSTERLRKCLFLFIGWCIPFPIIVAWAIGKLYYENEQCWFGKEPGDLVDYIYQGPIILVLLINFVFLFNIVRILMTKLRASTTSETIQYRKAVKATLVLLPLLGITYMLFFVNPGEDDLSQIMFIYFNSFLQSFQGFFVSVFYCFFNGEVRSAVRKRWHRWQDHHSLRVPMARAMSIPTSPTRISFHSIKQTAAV
T1 sequence (P24387 whole entry): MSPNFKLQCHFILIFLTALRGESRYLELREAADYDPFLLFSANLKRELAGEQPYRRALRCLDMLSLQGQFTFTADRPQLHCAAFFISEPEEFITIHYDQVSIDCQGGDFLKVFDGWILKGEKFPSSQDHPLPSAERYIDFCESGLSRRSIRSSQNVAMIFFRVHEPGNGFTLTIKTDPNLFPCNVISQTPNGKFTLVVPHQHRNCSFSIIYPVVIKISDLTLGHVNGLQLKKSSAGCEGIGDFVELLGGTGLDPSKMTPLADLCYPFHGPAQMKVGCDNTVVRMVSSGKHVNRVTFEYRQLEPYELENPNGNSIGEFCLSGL

[7] = biological target: T2, RNA-binding protein pos-1 (Caenorhabditis elegans, UniProt G5EF15); assay: disruptors of C. elegans POS-1 RNA interaction – biochemical, fluorescence polarization, dose response (AID 1964);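 also: purified POS-1 fused to maltose binding protein made in E. coli; potency of compounds blocking POS-1 binding to fluorescent RNA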
T2 sequence (G5EF15 whole entry): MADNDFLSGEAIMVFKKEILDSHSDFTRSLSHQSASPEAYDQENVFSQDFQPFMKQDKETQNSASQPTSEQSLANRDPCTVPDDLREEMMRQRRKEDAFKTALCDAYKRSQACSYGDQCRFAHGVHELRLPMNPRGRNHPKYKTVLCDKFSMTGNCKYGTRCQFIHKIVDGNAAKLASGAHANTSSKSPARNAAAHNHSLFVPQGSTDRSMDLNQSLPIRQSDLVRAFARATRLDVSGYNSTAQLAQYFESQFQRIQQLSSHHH

[8] = biological target: T3, Zinc finger protein mex-5 (Caenorhabditis elegans, UniProt Q9XUB2); assay: potency of MEX-5 RNA-binding blockers – biochemical, C. elegans, fluorescence polarization, dose response (AID 1960)
T3 sequence (Q9XUB2 whole entry): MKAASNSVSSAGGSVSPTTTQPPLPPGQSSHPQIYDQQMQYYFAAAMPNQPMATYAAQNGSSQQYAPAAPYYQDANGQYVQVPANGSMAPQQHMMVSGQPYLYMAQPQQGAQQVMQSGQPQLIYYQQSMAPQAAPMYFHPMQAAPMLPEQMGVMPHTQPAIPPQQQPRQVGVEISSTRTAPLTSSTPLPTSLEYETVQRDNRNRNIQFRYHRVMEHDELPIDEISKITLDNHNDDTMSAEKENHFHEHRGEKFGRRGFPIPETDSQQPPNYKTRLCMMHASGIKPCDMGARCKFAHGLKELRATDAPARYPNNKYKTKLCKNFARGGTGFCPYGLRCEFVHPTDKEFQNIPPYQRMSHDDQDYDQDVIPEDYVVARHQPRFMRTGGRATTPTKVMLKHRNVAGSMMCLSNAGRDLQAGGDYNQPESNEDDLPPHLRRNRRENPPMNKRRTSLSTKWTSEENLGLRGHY

[9] = biological target: Bifunctional protein GlmU (Mycobacterium tuberculosis, UniProt P9WMN3); assay: Inhibitors of Mycobacterial Glucosamine-1-phosphate acetyl transferase (GlmU). Secondary screen.; parameters: species or system Mycobacterium tuberculosis H37Rv
[10] = biological target: Genome polyprotein (dengue virus type 2, UniProt P29990); assay: flavivirus cap methylation enzyme inhibition – biochemical, confirmation dose response, primary screen (AID 588689); type: functional
[11] = M. tuberculosis H37Rv growth inhibitors, H37Rv strain (AID 1626); type: functional
[12] = biological target: T4, Bcl-2-related protein A1 (Mus musculus, UniProt Q07440); assay: small-molecule antagonists of Bfl-1/BH3 interaction – biochemical, TR-FRET, mouse Bfl-1, confirmation (AID 621);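 also: TR-FRET binding of GST-Bfl-1 to FITC-labelled Bid peptide via terbium antibody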
T4 sequence (Q07440 whole entry): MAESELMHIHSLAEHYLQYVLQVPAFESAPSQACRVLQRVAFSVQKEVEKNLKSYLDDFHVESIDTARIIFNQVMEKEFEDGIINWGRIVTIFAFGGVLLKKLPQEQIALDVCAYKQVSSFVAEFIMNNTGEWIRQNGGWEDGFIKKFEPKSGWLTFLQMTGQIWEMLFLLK

[13] = biological target: T4, Bcl-2-related protein A1; assay: Bfl-1 binding inhibitors, SAR follow-up, biochemical, fluorescence polarization (AID 1070)
[14] = HPDE-C7 pancreatic duct cell viability loss – fluorescence, HTS (AID 430); type: functional, cell-based; settings: Homo sapiens
[15] = microbe, parasite or virus in culture; type: functional; settings: Mycobacterium tuberculosis
[16] = viability loss of HPDE-C7K cells – cell-based, fluorescence, HTS, primary screen (AID 431); type: functional; settings: Homo sapiens
[17] = viability inhibitors of stage V gametocytes – luminescence, dose response (AID 1117278); type: functional, cell-based;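 also: gametocytes exposed to compound for 24 hours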
[18] = viability loss in human Jurkat cells – cell-based, luminescence, cytotoxicity control for P. falciparum gametocyte viability project, dose response (AID 1117277); type: functional;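 also: potency reflects loss of cellular ATP meaning fewer viable cells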

Sequence of Genome polyprotein (P29990 2492-3391 limits assumed): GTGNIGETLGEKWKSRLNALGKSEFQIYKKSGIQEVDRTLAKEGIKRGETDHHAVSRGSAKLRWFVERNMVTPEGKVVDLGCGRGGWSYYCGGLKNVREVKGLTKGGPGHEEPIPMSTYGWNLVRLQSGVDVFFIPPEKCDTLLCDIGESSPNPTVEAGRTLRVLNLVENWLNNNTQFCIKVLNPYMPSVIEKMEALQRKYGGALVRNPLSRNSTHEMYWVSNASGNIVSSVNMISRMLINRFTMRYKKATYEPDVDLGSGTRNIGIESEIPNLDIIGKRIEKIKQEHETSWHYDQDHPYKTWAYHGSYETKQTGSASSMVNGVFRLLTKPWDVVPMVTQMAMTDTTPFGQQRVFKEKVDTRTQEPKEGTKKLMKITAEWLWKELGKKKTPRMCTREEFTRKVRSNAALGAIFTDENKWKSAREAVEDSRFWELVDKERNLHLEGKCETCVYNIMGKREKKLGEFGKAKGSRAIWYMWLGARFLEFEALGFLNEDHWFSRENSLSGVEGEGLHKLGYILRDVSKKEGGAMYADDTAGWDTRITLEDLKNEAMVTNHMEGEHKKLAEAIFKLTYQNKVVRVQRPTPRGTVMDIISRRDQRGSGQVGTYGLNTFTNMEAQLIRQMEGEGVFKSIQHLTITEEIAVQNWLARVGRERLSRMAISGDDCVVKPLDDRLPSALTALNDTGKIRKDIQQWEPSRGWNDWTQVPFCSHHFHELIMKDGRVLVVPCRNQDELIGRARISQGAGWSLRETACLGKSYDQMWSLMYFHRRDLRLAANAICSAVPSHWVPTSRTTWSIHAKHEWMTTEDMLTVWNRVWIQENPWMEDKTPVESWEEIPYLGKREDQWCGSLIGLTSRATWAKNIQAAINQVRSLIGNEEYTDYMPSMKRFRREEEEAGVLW
Sequence of Bifunctional protein GlmU (P9WMN3 whole entry): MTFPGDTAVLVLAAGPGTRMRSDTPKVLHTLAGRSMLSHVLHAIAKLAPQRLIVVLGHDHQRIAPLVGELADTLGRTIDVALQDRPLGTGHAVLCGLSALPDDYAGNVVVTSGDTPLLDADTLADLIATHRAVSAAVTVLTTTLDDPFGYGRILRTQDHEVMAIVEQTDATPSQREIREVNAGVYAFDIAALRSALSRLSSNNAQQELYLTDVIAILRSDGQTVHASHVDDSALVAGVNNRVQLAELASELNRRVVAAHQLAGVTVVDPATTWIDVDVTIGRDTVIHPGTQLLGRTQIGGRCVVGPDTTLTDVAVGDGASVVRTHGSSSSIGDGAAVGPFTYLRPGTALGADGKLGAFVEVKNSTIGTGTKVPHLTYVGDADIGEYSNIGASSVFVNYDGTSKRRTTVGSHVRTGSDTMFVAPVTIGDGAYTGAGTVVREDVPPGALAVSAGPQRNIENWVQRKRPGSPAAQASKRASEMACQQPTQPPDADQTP

COc1ccc(Cl)c2c3n[nH]c(SCc4ccccn4)nc-3nc12
EC50 [1]: 0.391 µM (active)
EC50 [2]: < 0.1 µM (active)
EC50 [3]: 25.2 µM (active)
EC50 [4]: 0.287 µM (active)
EC50 [5]: 0.249 µM (active)

Cc1nnc(SCC(=O)c2cc(C)n(C3CC3)c2C)s1
EC50 [1]: 0.594 µM (active)
EC50 [2]: < 0.1 µM (active)
EC50 [3]: > 120 µM (not active)
EC50 [4]: 0.266 µM (active)
EC50 [5]: 1.88 µM (active)
EC50 [6]: 7.62 µM (active)

COc1ccc(N2C(=O)C(Cl)=C(Nc3ccccc3O)C2=O)cc1
EC50 [7]: > 300 µM (not active)
EC50 [8]: 24.5 µM (active)
IC50 [9]: 53.6 µM (active)
IC50 [10]: 78 µM (active)

COc1ccc(-c2cc(C(F)(F)F)n3ncc(C(=O)N4CCCCC4c4cccnc4)c3n2)cc1 (stereo not given)
IC50 [11]: > 100 µM (active)

COc1ncccc1-c1nnn(-c2ccc(C)cc2)n1
IC50 [12]: > 100 µM (not active)
IC50 [13]: > 100 µM (not active)

Cc1nc2cc(C(F)(F)F)ccc2n1C1CCN(Cc2nnnn2Cc2ccc3c(c2)OCO3)CC1
EC50 [14]: 8.54 µM (active)
CC50 [15]: > 40 µM (active)
EC50 [16]: 8.93 µM (active)

O=C(Cc1ccc(-c2ccccc2)cc1)NC(c1ccccc1)c1ccccc1
IC50 [17]: > 109 µM (inactive)
IC50 [18]: > 83.3 µM (inactive)

O=C(COC(=O)Cc1ccc(F)cc1)NCc1ccco1
IC50 [17]: > 109 µM (inactive)
IC50 [18]: > 83.2 µM (inactive)
